Laboratory results reported in article PMC12670405, “Second-Generation AURKA-Targeting PROTACs: Structural Optimization toward in Vivo Degradation in Neuroblastoma” (Journal of Medicinal Chemistry, 2025).
Read-outs that look alike come from different tables or passages of the source.

Key:
NGP = experiment: IncuCyte live-cell imaging, antiproliferative effect; format: cell-based; details: Homo sapiens, 72 h
Excerpt: Human neuroblastoma cell lines NGP, IMR-32, SJNB-8, SK-N-BE(2)-C, SJNB-1, SK-N-SH and SK-N-AS, as well as benign immortalized cell lines RPE and HEK293T were either bought commercially or obtained through research laboratories. […] Screening for mycoplasma contamination occurred routinely on the cells. Human neuroblastoma cell lines SH-SY5Y_shABCB1 & SH-SY5Y_shNTC were generated by transduction with pLKO.1-ABCB1_TRCN0000059683 shRNA (Sigma MISSION SHCLND) or pLKO.1-puro NT shRNA (Sigma MISSION SHC002) vectors respectively (Supplementary Table S6), packaged using Lenti-X293T (Clontech). Transduced cells were selected with 2 μg/mL puromycin. These cells were cultured in DMEM 4.5 g/L D-Glucose, L-Glutamine and 110 mg/L Sodium Pyruvate (Gibco, #11995065) supplemented with 10% fetal bovine serum, 1× Antibiotic-Antimycotic solution (Sigma-Aldrich, #A5955) and 1× MEM nonessential amino acids (Sigma-Aldrich, #M7145). Incubation of all cells occurred at 37 °C and 5% CO2.
Neuroblastoma cells were seeded in 384-well plates at different densities ranging from 1200 to 5000 cells/well and allowed to adhere overnight. RPE and HEK293T were seeded at 200 and 600 cells/well, respectively. Compound treatment was performed using the D300e Digital Dispenser (Tecan) in duplicate or triplicate and cell confluency was monitored over time using the IncuCyte Live-cell imaging system (Sartorius). […] Mean normalized confluences were calculated from 3 individual experiments.
All dose–response curves were computed on GraphPad Prism using the Variable Slope (four parameters) equation. Absolute half-maximal degradation (DC50), growth inhibitory (GI50) and enzymatic inhibitory (IC50) concentrations, as well as inhibition constants (Ki) were derived from dose–response curves via interpolation. Statistical tests were performed on GraphPad Prism and detailed in the figure legends. Unless otherwise stated, “n” in the figure legends indicates the number of independent experiments conducted at different times.

AURKA = molecular target: T1, AURKA (Homo sapiens, UniProt O14965); experiment: AURKA degradation, Simple Western; format: cell-based; parameters: Representative Western blot showing levels of endogenous proteins MDR1, MYCN, AURKA, and CRBN in untreated cell lines; endogenous in cells; host or cells: NGP, IMR-32, SJNB-8, SK-N-BE(2)-C, SK-N-SH, SK-N-AS, SJNB-1, RPE, HEK293T; details: for pDC50: AURKA degradation; for DC50: read-out: AURKA DC50;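 for AURKA Degradation 24h @1000nM: measured in NGP neuroblastoma cells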;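 for AURKA Degradation 24h @100nM: measured in NGP neuroblastoma cells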
T1 sequence (O14965 1-403): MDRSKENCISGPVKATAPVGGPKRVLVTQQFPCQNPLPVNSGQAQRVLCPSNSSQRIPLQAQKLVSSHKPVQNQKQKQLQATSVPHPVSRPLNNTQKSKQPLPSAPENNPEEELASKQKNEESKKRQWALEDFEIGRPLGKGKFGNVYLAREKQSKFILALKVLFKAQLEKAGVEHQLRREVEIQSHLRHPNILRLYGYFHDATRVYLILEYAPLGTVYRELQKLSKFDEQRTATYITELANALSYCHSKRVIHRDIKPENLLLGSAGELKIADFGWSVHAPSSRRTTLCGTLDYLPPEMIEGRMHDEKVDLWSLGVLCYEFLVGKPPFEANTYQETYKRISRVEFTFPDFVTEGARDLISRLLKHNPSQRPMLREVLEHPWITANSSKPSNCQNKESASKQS
Procedure: Cells were seeded in T-25 flasks at different densities ranging from 1 to 2 million cells per flask and allowed to adhere for 1–2 days. In experiments involving compound treatment, this was done by medium replacement containing the compound(s) of interest in their corresponding concentrations. In competition binding experiments, cells were first pretreated with an excess of MK-5108, thalidomide or MG-132 for 1 h by shaking gently at room temperature prior to addition of SK4454 or SK5527. All samples were normalized to contain the same percentage of DMSO as the negative DMSO controls. Cells were harvested on ice at their respective time points by scraping, washed with ice-cold PBS to collect remaining cells, and centrifuged (2500 rpm, 4 °C). A second washing and centrifugation step was performed prior to collection of the final cell pellets which were then snap-frozen in liquid nitrogen and kept frozen at −80 °C until further processing. Lysis of cell pellets occurred in cold RIPA buffer (0.5% w/v Sodium Deoxycholate, 150 mM NaCl, 50 mM TrisHCl pH 7.5, 0.1% w/v SDS, 1% w/v NP-40) supplemented with protease and phosphatase inhibitors (Roche, #11836145001, #04906845001) by rotating gently at 4 °C for 1h, followed by a centrifugation step for 10 min (10,000 rpm, 4 °C). The supernatant was collected and concentrations of the obtained protein lysates were measured using the Pierce BCA Protein Assay Kit (Thermo Fisher Scientific, #23227).
Simple Western analyses were performed with the Wes instrument (Bio-Techne) using the 12–230 kDa Wes Separation module and the EZ standard pack reagent 1 (Biotechne, #SM-W001, #PS-ST01EZ-8) following the manufacturer’s protocol. Protein lysates were loaded at 0.8 μg/μL under denaturing conditions (0.2 μg/μL for MYCN detection). Chemiluminescence peaks were generated by the Compass Software (Bio-Techne) and the area under the peaks calculated using the Gaussian fit method. Per lane, quantified data were always normalized to that of the loading control (Vinculin) prior to calculating fold changes relative to the negative DMSO control. Mean fold changes are calculated from 3 individual experiments. A list of the primary and secondary antibodies used can be found in the Supporting Information (Supplementary Table S7).
Graphs were generated using GraphPad Prism Software (version 10.1.2) or RStudio (R-4.3.2). All dose–response curves were computed on GraphPad Prism using the Variable Slope (four parameters) equation. Absolute half-maximal degradation (DC50), growth inhibitory (GI50) and enzymatic inhibitory (IC50) concentrations, as well as inhibition constants (Ki) were derived from dose–response curves via interpolation. Statistical tests were performed on GraphPad Prism and detailed in the figure legends. Unless otherwise stated, “n” in the figure legends indicates the number of independent experiments conducted at different times.

| Compound | GI50 (NGP; read-out: GI50 72h, 72h) [nM] | GI50 (NGP; read-out: pGI50 (converted)) [nM] | AURKA Degradation 24h @100nM (AURKA) | AURKA Degradation 24h @1000nM (AURKA) | pDC50 (AURKA) | DC50 (AURKA) [nM] | AURKA degradation activity (in words) (AURKA; NGP, 24 h treatment) | Dmax (AURKA; NGP, 24 h treatment) [%] |
| --- | --- | --- | --- | --- | --- | --- | --- | --- |
| O=C1CCC(Nc2ccc(N3CCN(CC4CN(C(=O)[C@]5(Cc6cccc(Nc7nccs7)n6)CC[C@@H](Oc6cccc(Cl)c6F)CC5)C4)CC3)cc2)C(=O)N1 (some centres unmarked) [PROTAC 17] | 39 | 38.9 | 59 | 88 | 7,29 | 51.1 | – | – |
| O=C1CCC(N2C(=O)c3ccc(N4CCN(C(=O)COCCOCCNC(=O)[C@]5(Cc6cccc(Nc7nccs7)n6)CC[C@@H](Oc6cccc(Cl)c6F)CC5)CC4)cc3C2=O)C(=O)N1 (some centres unmarked) [PROTAC 9] | 112 | 112 | 64 | 83 | – | – | – | – |
| Cc1cc(Nc2ccc(F)c(CC3(C(=O)N4CC(CN5CCN(c6ccc(N7CCC(=O)NC7=O)cn6)CC5)C4)CCN(Cc4cccc(Cl)c4F)CC3)n2)n[nH]1 [PROTAC 31] | 98 | 97.7 | 80 | 89 | – | – | – | – |
| Cc1cc(Nc2ccc(F)c(CC3(C(=O)N4CCC(CN5CCC(c6ccc(CN7CCC(=O)NC7=O)cn6)CC5)CC4)CCN(Cc4cccc(Cl)c4F)CC3)n2)n[nH]1 [PROTAC 30] | 158 | 158 | 42 | 59 | – | – | weak degradation potency | 59 |
| Cc1cc(Nc2ccc(F)c(CC3(C(=O)N4CCC(F)(C(=O)N5CCC(c6ccc(N7CCC(=O)NC7=O)cn6)CC5)CC4)CCN(Cc4cccc(Cl)c4F)CC3)n2)n[nH]1 [PROTAC 38] | 146 | 145 | 82 | 90 | – | – | – | – |
| Cc1cc(Nc2ccc(F)c(CC3(C(=O)N4CCC(F)(C(=O)N5CCN(c6ccc(N7CCC(=O)NC7=O)cn6)CC5)CC4)CCN(Cc4cccc(Cl)c4F)CC3)n2)n[nH]1 [PROTAC 34] | 84 | 83.2 | 83 | 91 | – | – | – | – |
| O=C1CCC(N2C(=O)c3ccc(N4CCN(CCOCCNC(=O)[C@]5(Cc6cccc(Nc7nccs7)n6)CC[C@@H](Oc6cccc(Cl)c6F)CC5)CC4)cc3C2=O)C(=O)N1 (some centres unmarked) [PROTAC 6] | 64 | 63.1 | 76 | 82 | – | – | – | – |
| O=C1CCC(N2C(=O)c3cccc(N4CCN(C(=O)COCCOCCNC(=O)[C@]5(Cc6cccc(Nc7nccs7)n6)CC[C@@H](Oc6cccc(Cl)c6F)CC5)CC4)c3C2=O)C(=O)N1 (some centres unmarked) [PROTAC 2] | 72 | 72.4 | 70 | 81 | – | – | – | – |
| O=C1CCC(Nc2ccc(N3CCN(C(=O)[C@]4(Cc5cccc(Nc6nccs6)n5)CC[C@@H](Oc5cccc(Cl)c5F)CC4)CC3)cc2)C(=O)N1 (some centres unmarked) [PROTAC 12] | 715 | 708 | 12 | < 0 | – | – | failed to reduce AURKA levels and instead led to its upregulation | – |
| O=C1CCC(N2C(=O)c3ccc(N4CCN(C(=O)COCCNC(=O)[C@]5(Cc6cccc(Nc7nccs7)n6)CC[C@@H](Oc6cccc(Cl)c6F)CC5)CC4)cc3C2=O)C(=O)N1 (some centres unmarked) [PROTAC 7] | 112 | 112 | 68 | 77 | – | – | – | – |
| O=C1CCC(N2C(=O)c3ccc(N4CCN(CCOCCOCCNC(=O)[C@]5(Cc6cccc(Nc7nccs7)n6)CC[C@@H](Oc6cccc(Cl)c6F)CC5)CC4)cc3C2=O)C(=O)N1 (some centres unmarked) [PROTAC 8] | 56 | 56.2 | 76 | 75 | – | – | – | – |
| O=C1CCC(Nc2ccc(N3CCN(C(=O)COCCOCCNC(=O)[C@]4(Cc5cccc(Nc6nccs6)n5)CC[C@@H](Oc5cccc(Cl)c5F)CC4)CC3)cc2)C(=O)N1 (some centres unmarked) [PROTAC 16] | 78 | 77.6 | 39 | 75 | – | – | only weak AURKA-degrading activity | – |
| Cc1cc(Nc2ccc(F)c(CC3(C(=O)N4CC(N5CCC(c6ccc(N7CCC(=O)NC7=O)cn6)CC5)C4)CCN(Cc4cccc(Cl)c4F)CC3)n2)n[nH]1 [PROTAC 35] | 332 | 331 | 62 | 69 | – | – | – | – |
| O=C1CCC(Nc2ccc(N3CCN(CC4CCN(C(=O)[C@]5(Cc6cccc(Nc7nccs7)n6)CC[C@@H](Oc6cccc(Cl)c6F)CC5)CC4)CC3)c(F)c2)C(=O)N1 (some centres unmarked) [PROTAC 19] | 53 | 52.5 | 83 | 93 | – | – | – | – |
| O=C1CCN(c2ccc(N3CCN(C4CCN(C(=O)[C@]5(Cc6cccc(Nc7nccs7)n6)CC[C@@H](Oc6cccc(Cl)c6F)CC5)C4)CC3)nc2)C(=O)N1 (some centres unmarked) [PROTAC 26] | 45 | 44.7 | 71 | 71 | 8,3 | 5 | – | – |
| O=C1CCC(Nc2ccc(N3CCN(C(=O)COCCNC(=O)[C@]4(Cc5cccc(Nc6nccs6)n5)CC[C@@H](Oc5cccc(Cl)c5F)CC4)CC3)cc2)C(=O)N1 (some centres unmarked) [PROTAC 15] | 93 | 93.3 | 38 | 55 | – | – | only weak AURKA-degrading activity | – |
| O=C1CCC(N2C(=O)c3ccc(OCCN4CCN(C(=O)[C@]5(Cc6cccc(Nc7nccs7)n6)CC[C@@H](Oc6cccc(Cl)c6F)CC5)CC4)cc3C2=O)C(=O)N1 (some centres unmarked) [PROTAC 10] | 52 | 52.5 | 72 | 80 | – | – | – | – |
